Calls of active or inactive are those of the source. The calls are words filed in the database; no cut-off is given here.
What was measured:
[1] = biological target: Tyrosine-protein kinase JAK1 (Homo sapiens, UniProt P23458); assay: Inhibition of recombinant JAK1 (unknown origin)
[2] = biological target: T1, Serine/threonine-protein kinase Nek6 (Homo sapiens, UniProt Q9HC98); assay: Inhibition of recombinant NEK6 (unknown origin)
[3] = biological target: Mitogen-activated protein kinase 14 (Homo sapiens, UniProt Q16539); assay: Inhibition of recombinant P38alpha (unknown origin)
Mitogen-activated protein kinase 14, sequence (Q16539 whole entry): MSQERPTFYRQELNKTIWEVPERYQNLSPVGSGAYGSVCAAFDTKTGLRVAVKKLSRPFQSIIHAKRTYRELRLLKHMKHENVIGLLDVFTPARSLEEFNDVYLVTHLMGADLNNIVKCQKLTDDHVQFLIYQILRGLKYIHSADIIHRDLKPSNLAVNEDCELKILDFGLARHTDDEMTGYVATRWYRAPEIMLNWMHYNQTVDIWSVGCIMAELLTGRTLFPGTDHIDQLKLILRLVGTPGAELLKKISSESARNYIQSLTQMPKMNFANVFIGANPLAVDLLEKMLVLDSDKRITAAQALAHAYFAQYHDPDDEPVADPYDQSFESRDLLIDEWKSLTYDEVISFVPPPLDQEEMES

[4] = biological target: Eukaryotic translation initiation factor 2-alpha kinase 3 (Homo sapiens, UniProt Q9NZJ5); assay: Inhibition of recombinant PERK (unknown origin)
Eukaryotic translation initiation factor 2-alpha kinase 3, sequence (Q9NZJ5 whole entry): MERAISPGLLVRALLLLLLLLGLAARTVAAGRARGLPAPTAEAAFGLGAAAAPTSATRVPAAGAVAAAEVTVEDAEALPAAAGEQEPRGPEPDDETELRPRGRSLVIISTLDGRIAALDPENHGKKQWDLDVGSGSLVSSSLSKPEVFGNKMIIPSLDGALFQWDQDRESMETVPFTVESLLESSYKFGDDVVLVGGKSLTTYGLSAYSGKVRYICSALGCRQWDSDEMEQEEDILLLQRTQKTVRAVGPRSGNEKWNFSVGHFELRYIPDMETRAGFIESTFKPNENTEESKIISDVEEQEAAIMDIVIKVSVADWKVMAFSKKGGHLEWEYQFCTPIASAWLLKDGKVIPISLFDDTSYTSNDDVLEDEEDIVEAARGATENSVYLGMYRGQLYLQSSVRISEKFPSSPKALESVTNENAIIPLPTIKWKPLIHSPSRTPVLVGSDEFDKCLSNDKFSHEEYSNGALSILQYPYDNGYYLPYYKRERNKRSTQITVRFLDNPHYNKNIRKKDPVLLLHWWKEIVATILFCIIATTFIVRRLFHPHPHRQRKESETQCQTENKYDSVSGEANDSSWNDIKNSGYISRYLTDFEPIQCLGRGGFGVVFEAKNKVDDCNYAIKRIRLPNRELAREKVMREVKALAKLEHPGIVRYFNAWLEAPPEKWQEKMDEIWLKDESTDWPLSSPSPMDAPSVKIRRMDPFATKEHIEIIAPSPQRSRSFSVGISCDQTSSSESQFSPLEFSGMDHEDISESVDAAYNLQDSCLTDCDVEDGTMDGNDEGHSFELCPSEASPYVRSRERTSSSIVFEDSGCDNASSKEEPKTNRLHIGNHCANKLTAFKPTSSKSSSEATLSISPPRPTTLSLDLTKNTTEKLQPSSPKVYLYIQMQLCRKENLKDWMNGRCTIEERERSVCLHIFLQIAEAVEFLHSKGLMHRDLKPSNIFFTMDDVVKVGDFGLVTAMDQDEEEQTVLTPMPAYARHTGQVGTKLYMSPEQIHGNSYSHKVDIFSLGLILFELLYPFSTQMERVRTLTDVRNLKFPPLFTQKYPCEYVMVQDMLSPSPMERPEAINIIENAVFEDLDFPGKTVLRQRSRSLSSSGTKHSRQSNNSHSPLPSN

BT-474 = assay: Antiproliferative activity against human BT-474 cells assessed as inhibition of cell growth incubated for 72 hrs by celltiter-glo assay; assay type: functional, cell-based; conditions: BT-474, 72 h
HCT-116 = assay: Antiproliferative activity against human HCT-116 cells assessed as inhibition of cell growth incubated for 72 hrs by celltiter-glo assay; assay type: functional, cell-based; conditions: HCT-116, 72 h
COLO-678 = assay: Antiproliferative activity against human COLO-678 cells assessed as inhibition of cell growth incubated for 72 hrs by celltiter-glo assay; assay type: functional, cell-based; conditions: COLO-678, 72 h
MOLT-4 = assay: Antiproliferative activity against human MOLT-4 cells assessed as inhibition of cell growth incubated for 72 hrs by celltiter-glo assay; assay type: functional, cell-based; conditions: MOLT-4, 72 h
NCI-H889 = assay: Antiproliferative activity against human NCI-H889 cells assessed as inhibition of cell growth incubated for 72 hrs by celltiter-glo assay; assay type: functional, cell-based; conditions: NCI-H889, 72 h
Granta-519 = assay: Antiproliferative activity against human Granta-519 cells assessed as inhibition of cell growth incubated for 72 hrs by celltiter-glo assay; assay type: functional, cell-based; conditions: Granta-519, 72 h
[5] = Antiproliferative activity against human GM03798 cells assessed as inhibition of cell growth incubated for 72 hrs by celltiter-glo assay; assay type: functional, cell-based; conditions: GM03798, 72 h
[6] = Antiproliferative activity against human GM14788 cells assessed as inhibition of cell growth incubated for 72 hrs by celltiter-glo assay; assay type: functional, cell-based; conditions: GM14788, 72 h
SK-OV-3 = assay: Antiproliferative activity against human SK-OV-3 cells assessed as inhibition of cell growth incubated for 72 hrs by celltiter-glo assay; assay type: functional, cell-based; conditions: SK-OV-3, 72 h
[7] = biological target: T1, Serine/threonine-protein kinase Nek6; assay: Inhibition of recombinant NEK6 (unknown origin) preincubated for 60 mins
HeLa = assay: Inhibition of cdc20-MAD2 protein-protein interaction in human nocodazole arrested HeLa cells by Coimmunoprecipitation analysis; assay type: cell-based
[8] = Half life in Athymic nu-nu mouse at 100 mg/kg, po measured upto 24 hrs by LC-MS/MS analysis; assay type: ADME, organism-based; conditions: in vivo

T1 sequence (Q9HC98 whole entry): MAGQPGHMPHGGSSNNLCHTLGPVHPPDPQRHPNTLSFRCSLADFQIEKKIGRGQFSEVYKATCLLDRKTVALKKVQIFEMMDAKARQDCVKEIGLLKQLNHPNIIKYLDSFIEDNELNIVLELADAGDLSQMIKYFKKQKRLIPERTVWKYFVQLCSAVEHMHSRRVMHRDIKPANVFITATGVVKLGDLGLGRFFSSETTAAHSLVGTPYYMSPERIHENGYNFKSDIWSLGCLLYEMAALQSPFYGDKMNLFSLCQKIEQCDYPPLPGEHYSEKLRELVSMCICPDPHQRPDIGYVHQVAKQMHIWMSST
Tyrosine-protein kinase JAK1, sequence (P23458 whole entry): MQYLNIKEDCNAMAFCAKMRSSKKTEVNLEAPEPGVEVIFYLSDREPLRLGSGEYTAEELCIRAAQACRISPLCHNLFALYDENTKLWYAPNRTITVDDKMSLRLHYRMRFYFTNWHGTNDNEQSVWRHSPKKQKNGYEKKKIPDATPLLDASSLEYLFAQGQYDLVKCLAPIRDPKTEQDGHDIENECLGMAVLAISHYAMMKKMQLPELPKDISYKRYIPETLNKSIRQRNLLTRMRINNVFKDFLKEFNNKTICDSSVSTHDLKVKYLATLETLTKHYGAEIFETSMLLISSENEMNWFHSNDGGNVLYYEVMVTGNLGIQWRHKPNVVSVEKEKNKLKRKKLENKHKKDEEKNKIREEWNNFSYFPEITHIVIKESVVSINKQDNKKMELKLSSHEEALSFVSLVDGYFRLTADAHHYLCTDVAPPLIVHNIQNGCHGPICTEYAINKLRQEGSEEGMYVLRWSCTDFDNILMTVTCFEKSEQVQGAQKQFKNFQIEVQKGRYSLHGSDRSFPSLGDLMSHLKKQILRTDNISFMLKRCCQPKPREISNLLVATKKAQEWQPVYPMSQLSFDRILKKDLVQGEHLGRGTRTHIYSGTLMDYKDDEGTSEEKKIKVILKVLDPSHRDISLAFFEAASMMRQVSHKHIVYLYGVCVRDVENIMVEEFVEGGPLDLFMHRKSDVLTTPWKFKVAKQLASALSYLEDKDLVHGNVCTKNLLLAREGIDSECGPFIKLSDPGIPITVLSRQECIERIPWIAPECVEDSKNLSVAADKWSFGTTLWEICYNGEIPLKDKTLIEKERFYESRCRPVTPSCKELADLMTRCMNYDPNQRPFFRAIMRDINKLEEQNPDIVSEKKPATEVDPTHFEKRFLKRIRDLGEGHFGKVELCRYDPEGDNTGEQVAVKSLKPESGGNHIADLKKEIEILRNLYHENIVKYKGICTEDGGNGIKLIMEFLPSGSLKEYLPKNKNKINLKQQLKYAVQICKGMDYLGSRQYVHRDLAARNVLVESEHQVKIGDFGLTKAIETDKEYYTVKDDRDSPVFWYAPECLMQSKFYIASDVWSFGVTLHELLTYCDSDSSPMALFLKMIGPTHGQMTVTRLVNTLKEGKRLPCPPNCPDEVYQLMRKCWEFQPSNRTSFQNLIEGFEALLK

IC50 [1]: > 10 µM | IC50 [2]: 6.02 µM | IC50 [3]: > 10 µM | IC50 [4]: > 10 µM | IC50 (BT-474): 1160 nM | IC50 (HCT-116): 2040 nM | IC50 (COLO-678): 10 µM | IC50 (MOLT-4): 1040 nM | IC50 (NCI-H889): 1260 nM | IC50 (SK-OV-3): 4.26 µM | IC50 [7]: < 10 µM | half-life [8]: 1010 min
Structure (SMILES): CCc1cccc(CC)c1NC(=O)c1nn(C)c2c1CCc1cnc(Nc3ccc(C(=O)NC4CCN(C)CC4)cc3OC(F)(F)F)nc1-2
IC50 (Granta-519): 1690 nM | IC50 [5]: 9.4 µM | IC50 [6]: 10 µM | inhibition (HeLa): Active

Reference: ChEMBL document CHEMBL5705893, “Targeting the mitotic checkpoint for cancer therapy with NMS-P715, an inhibitor of MPS1 kinase” (Cancer Res, 2010)
